pIC50: −log10 of the molar value.

Data set [1] deals with bovine brain tubulin. Briefly: In vitro tubulin polymerization test (turbidimetry at 350 nm). In kind it is biochemical. The settings on record: molecules at 50 μM, calculated at t=3000 s, DMSO control = 100%. The procedure:
Tubulin was purified from bovine brain using the polymerization-depolymerization process described by (Castoldi M and Popov A V. Protein Expr Purif. 2003, 32(1): pp 83-8).
The in vitro tubulin polymerization tests (at 50 μM) were carried out in the presence of GTP 1 mM in BRB80 buffer (80 mM K-PIPES pH 6.8, 1 mM MgCl2, 1 mM EGTA) at 37° C. The tests were carried out in 96-microwell plates (half-wells) (Costar plates, Corning #3695), in triplicate with a final volume of 70 μl. Tubulin assembly was carried out in the presence of compound 6 or its analogues (all used at a concentration of 50 μM) and was monitored by turbidimetry measurement at 350 nm using a spectrophotometer (Spectramax More, Molecular Devices).
Measurement of the effect of a molecule on polymerization was calculated at t=3000 s taking the value of the control at the same time as being equal to 100%.

Data set [2] concerns HMEC cells. Description: Proliferation of HMEC cells (GI50). The settings on record: Homo sapiens, 120 h, 50 μM to 1 nM for 5 days. In kind it is cell-based. As to the method:
The HMECs were seeded at 10% confluence and incubated with the molecules at different concentrations (from 50 μM to 1 nM) for 5 days. The GI50 (50% Growth Inhibition) defines the concentration inducing a 50% reduction in proliferation with respect to the control.

Data set [3] has as its target T1, PP1α (PP1CA) (Oryctolagus cuniculus, UniProt P62139).
T1 construct: purchased New England Biolabs P0754
Description: Protein phosphatase test (PP1 activity, DiFMUP fluorescent substrate). Type of data set: biochemical. The conditions noted are these: PP1CA at 80 mU, fluorescent substrate (50 μM), molecules from 50 μM to 50 nM; read-out: PP1 Inhibition IC50. The procedure:
FIG. 13 presents the graph showing the inhibition of the PP1Cα activity by compound 6 in vitro. PP1Cα (New England Biolabs, 30 mU/well) was incubated in the presence of compound 6 at different concentrations and a fluorescent substrate, diFMUP.
Determination of the 1050 was carried out with PP1CA at 80 mU in the presence of a fluorescent substrate
(50 μM) and different concentrations of molecules from 50 μM to 50 nM.
For the activity tests, PP1α (New England Biolabs # P0754) was used at a final concentration of 30 mU or 80 mU for the screening of all the analogues. 6,8-difluoro-4-methylumbelliferyl phosphate (DiFMUP, Invitrogen # D6567) was used as fluorescent substrate at a concentration of […]. All the tests were carried out in a final volume of 100 μl, at 37° C. in 96-microwell plates (Greiner #655096).
Compound 6, combretastatin A4 (CA-4) as well as all the analogues were diluted in 50 μl of PP1 buffer (100 mM Tris-HCl, pH 7.5, 4 mM DTT, 0.2 mM EDTA, 0.5 mM MnCl2) from 50 μM to 50 nM. Corresponding quantities of DMSO were added to control wells. PP1α (30 or 80 mU in 30 μl of PP1 buffer) was added to each well. After incubating for 15 minutes at AT, the substrate was added (in 20 μl of PP1 buffer). After incubating for 20 minutes at 37° C., the fluorescence was measured in a plate fluorometer at 355-460 nm in order to assay the phosphatase activity. The test was carried out three times in duplicate for each condition.

For data set [4], the system named is HeLa cells. Briefly: Indirect immunofluorescence: effect on HeLa cells (mitotic arrest, microtubule depolymerization). On the set-up: key to Effect on Hela at 25 μM / Effect on Hela at 100 μM / Effect on Hela at 50 and 100 μM / Effect on Hela at 50 μM: —: −: no activity on the cells at 25 μM (if there is an effect at high concentrations, this is specified in the table).; *: weak activity (MA and/or slight depolymerization of the MTs and/or slight inhibition of proliferation),; **: average activity (MA and/or moderate depolymerization of the MTs and/or moderate inhibition of proliferation),; ***: strong activity (MA and/or pronounced depolymerization of the MTs and/or pronounced inhibition of proliferation),; ****: very strong activity (MA and/or very pronounced depolymerization of the MTs and/or strong inhibition of proliferation). The conditions noted are these: 24 hours; for Effect on Hela at 25 μM: mitotic index and/or depolymerization of the MTs. In kind it is cell-based, human. The procedure:
The cells were cultured on slides in 24-well plates and incubated for 24 hours with molecule 6 at different concentrations from 1 to 10 μM.
Corresponding quantities of DMSO were added to the culture medium in the control wells.
The cells were fixed in a solution of PBS with 4% paraformaldehyde (PFA) and 0.1% glutaraldehyde (GA), for 15 minutes and centrifuged at 300 g for the last 10 minutes of the fixing. The slides were rinsed in PBS and the free aldehyde groups were reduced by two successive 5-minute incubations in PBS containing 1 mg/ml of NaBH4.
After one washing with PBS then another with PBST (PBS with 0.5% triton-X-100), the cells are incubated for 30 minutes at ambient temperature with anti α-tubulin monoclonal antibody solution (DM1A clone, Sigma # T6199) diluted to 1:200 in PBST. After 3 10-minute washings with PBST, the cells are incubated for 30 minutes at ambient temperature in a solution of goat anti-mouse polyclonal antibodies coupled with Alexa 488 (1:1000, Molecular Probes # A-11029) and phalloidin coupled with Texas red to label the actin (1:2000, Molecular Probes # T7471), in PBST also containing Hoechst 33258 (1 μg/ml) for labelling the DNA. After 3 10-minute washings in PBST, the slides are mounted on plates in Fluorsave™ mounting medium (Calbiochem #345789) and are observed and analyzed using an Axiovert 200M inverted fluorescence microscope (Zeiss®). The images are produced with a Plan-Apochromat 63× oil objective (Zeiss®) by means of a Coolsnap HQ camera (Roper Scientifics®) and with Metamorph acquisition software (Universal Imaging™ Corporation).
In order to evaluate the effect of the analogues of compound 6 on PHFs and HeLa cells, the immunofluorescence technique described above was used and adapted to a 96-well dish format. The cells were seeded in glass-bottomed 96-well dishes and incubated for 24 hours in the presence of different concentrations of molecules from 100 μM to 50 nM. And in the same way as described above, the cells were fixed and immunolabelled. Analysis of the phenotypes as well as counting the mitotic cells were carried out with the same microscope but using a ×40 objective (Olympus). The molecules were compared with each other with respect to the mitotic arrest induced on PHFs and HeLa cells at 25 and 0.3 μM.
The mitotic index and/or the depolymerization of the MTs were evaluated at 25 μM.

T1 sequence (P62139 whole entry): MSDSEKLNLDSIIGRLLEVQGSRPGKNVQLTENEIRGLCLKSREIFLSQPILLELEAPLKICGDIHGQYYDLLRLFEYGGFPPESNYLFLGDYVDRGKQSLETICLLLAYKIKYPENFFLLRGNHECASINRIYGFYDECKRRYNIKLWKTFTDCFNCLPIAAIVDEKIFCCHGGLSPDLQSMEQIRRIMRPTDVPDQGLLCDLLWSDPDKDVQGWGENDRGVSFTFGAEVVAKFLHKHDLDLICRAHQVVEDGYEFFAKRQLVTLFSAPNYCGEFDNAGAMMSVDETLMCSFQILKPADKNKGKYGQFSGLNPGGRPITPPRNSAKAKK

For orientation: melting point means the temperature, or range, at which the solid turns liquid. The term GI50 denotes the concentration giving 50% growth inhibition. One may read the pIC50 as −log10 of the IC50, conventionally taken in molar units. With `COc1ccc(-c2nc(Cl)c3cc(OC)ccc3c2Br)cc1` [Compound 26, 4-Bromo-1-chloro-7-methoxy-3-(4-methoxyphenyl)isoquinoline], the melting point fell in the range of 164 to 166 °C. Also, in data set [1], the Tubulin polymerization inhibition entry is “— ((−) signifies that the molecule induces little or no tubulin assembly inhibition in vitro: 0+ or − −5% of the DMSO control.)”. Moreover, the GI50 in data set [2] was over 50 µM. Further, the pIC50 in data set [3] was under 4.30. In data set [4], the “Effect on Hela at 25 μM” value is given as “—”.

In turn, `COc1ccc(-c2[nH]c(=O)c3cc(OC)ccc3c2I)cc1` [Compound 16, 4-Iodo-7-methoxy-3-(4-methoxyphenyl)isoquinoline-1(2H)-one] showed a melting point of 216 to 218 °C. The Tubulin polymerization inhibition result in data set [1] is given as “+++ ((+++) signifies that the molecule induces tubulin assembly inhibition in vitro of more than 50% with respect to the DMSO control.)”. In data set [2], this compound registered a GI50 of 0.1 to 1 µM. In data set [3], the pIC50 was under 4.30. For the same compound, in data set [4], the “Effect on Hela at 25 μM” value is recorded as “***”.

In turn, `COc1ccc(-c2nc(OC)c3cc(OC)ccc3c2[N+](=O)[O-])cc1` [Compound 19, 1,7-Dimethoxy-3-(4-methoxyphenyl)-4-nitroisoquinoline] yielded a melting point of 176 to 178 °C. For the same compound, the Tubulin polymerization inhibition result in data set [1] is “+ ((+) signifies that the molecule induces tubulin assembly inhibition in vitro comprised between 6 and 25% of the DMSO control.)”. Also, the GI50 in data set [2] was over 50 µM. Also, the pIC50 in data set [3] is 4.30 to 4.60. For the same compound, the “Effect on Hela at 25 μM” value in data set [4] was “—”. Also, in data set [4] (100 μM), the “Effect on Hela at 100 μM” value is “**”.

In the case of `COc1ccc2cc(-c3ccc(O)cc3)[nH]c(=O)c2c1` [Compound 45, 3-(4-Hydroxyphenyl)-7-methoxyisoquinolin-1(2H)-one], the melting point is 255 °C. For the same compound, the Tubulin polymerization inhibition result in data set [1] was “++ ((++) signifies that the molecule induces tubulin assembly inhibition in vitro comprised between 26 and 50% of the DMSO control.)”. In data set [2], this compound registered a GI50 of 0.1 to 1 µM. Moreover, the pIC50 in data set [3] was under 4.30. The “Effect on Hela at 25 μM” value in data set [4] is recorded as “****”.

Regarding `C#Cc1c(-c2ccc(OC)cc2)nc(OC)c2cc(OC)ccc12` [Compound 38, 4-Ethynyl-1,7-dimethoxy-3-(4-methoxyphenyl)isoquinoline], the melting point was 209 to 210 °C. Further, in data set [1], the Tubulin polymerization inhibition entry was “+ ((+) signifies that the molecule induces tubulin assembly inhibition in vitro comprised between 6 and 25% of the DMSO control.)”. Moreover, the GI50 in data set [2] was over 50 µM. Moreover, in data set [3], the negative-log IC50 (pIC50) was under 4.30. Also, the “Effect on Hela at 25 μM” value in data set [4] is listed as “—”.

Consider `COc1ccc(-c2[nH]c(=O)c3cc(OC)ccc3c2Br)cc1` [Compound 15, 4-Bromo-7-methoxy-3-(4-methoxyphenyl)isoquinoline-1(2H)-one], for which the melting point was in the range of 240 to 242 °C. In addition, the Tubulin polymerization inhibition entry in data set [1] was “++ ((++) signifies that the molecule induces tubulin assembly inhibition in vitro comprised between 26 and 50% of the DMSO control.)”. Moreover, the GI50 in data set [2] lay within 0.1 to 1 µM. In data set [3], the pIC50 was under 4.30. Besides, in data set [4], the “Effect on Hela at 25 μM” value is recorded as “***”.

Regarding `COc1ccc(-c2nc(Sc3ccccc3)c3cc(OC)ccc3c2[N+](=O)[O-])cc1` [Compound 20, 7-Methoxy-3-(4-methoxyphenyl)-4-nitro-1-(phenylethio)isoquinoline], the melting point was in the range of 169 to 171 °C. Also, the Tubulin polymerization inhibition entry in data set [1] was “++ ((++) signifies that the molecule induces tubulin assembly inhibition in vitro comprised between 26 and 50% of the DMSO control.)”. This compound also showed a GI50 in data set [2] of over 50 µM. For the same compound, the pIC50 in data set [3] was 4.30 to 4.60. Moreover, the “Effect on Hela at 25 μM” value in data set [4] is “—”. For the same compound, in data set [4] (50 and 100 μM), the “Effect on Hela at 50 and 100 μM” value is “*”.

With `COc1ccc2c([N+](=O)[O-])c(-c3ccc(OCc4ccccc4)cc3)[nH]c(=O)c2c1` [Compound 46, 3-(4-(Benzyloxy)phenyl)-7-methoxy-4-nitroisoquinolin-1(2H)-one], the melting point was 252 to 254 °C. Further, in data set [1], the Tubulin polymerization inhibition result is “+ ((+) signifies that the molecule induces tubulin assembly inhibition in vitro comprised between 6 and 25% of the DMSO control.)”. Besides, the GI50 in data set [2] was over 50 µM. The pIC50 in data set [3] is 4.62 to 5.00. For the same compound, the “Effect on Hela at 25 μM” value in data set [4] was “—”.

On to `COc1ccc(-c2[nH]c(=O)c3ccccc3c2N)cc1` [Compound 8], for which the Tubulin polymerization inhibition entry in data set [1] was “— ((−) signifies that the molecule induces little or no tubulin assembly inhibition in vitro: 0+ or − −5% of the DMSO control.)”. For the same compound, the GI50 in data set [2] is over 50 µM. Also, in data set [3], the pIC50 is under 4.30. Also, the “Effect on Hela at 25 μM” value in data set [4] is “—”.

Turning to `COc1ccc(-c2[nH]c(=O)c3cc(OC)ccc3c2O)cc1` [Compound 41, 4-Hydroxy-7-methoxy-3-(4-methoxyphenyl)isoquinolin-1(2H)-one], the Tubulin polymerization inhibition result in data set [1] was “— ((−) signifies that the molecule induces little or no tubulin assembly inhibition in vitro: 0+ or − −5% of the DMSO control.)”. Also, the GI50 in data set [2] lay in the range of 1 to 25 µM. In data set [3], the pIC50 was under 4.30. In addition, the “Effect on Hela at 25 μM” value in data set [4] is “—”.

Regarding `COc1ccc(-c2cc3ccc(OC)cc3c(=O)n2C)cc1` [Compound 65, 7-Methoxy-3-(4-methoxyphenyl)-2-methylisoquinoline-1(2H)-one], in data set [1], the Tubulin polymerization inhibition result is “+ ((+) signifies that the molecule induces tubulin assembly inhibition in vitro comprised between 6 and 25% of the DMSO control.)”. Moreover, in data set [2], the GI50 lay within 1 to 25 µM. For the same compound, in data set [3], the pIC50 was at most 4.30. The “Effect on Hela at 25 μM” value in data set [4] is on record as “*”.
